This note sets out measurements from article PMC4357699, “Identification of a second GTP-bound magnesium ion in archaeal initiation factor 2” (Nucleic Acids Research, 2015).

Holding throughout (test): nitrocellulose filter binding of [3H]GDP
Holding throughout (details): read-out: apparent Kd

In experiment [1] the target is T1, Ss-aIF2 (aIF2 heterotrimer, αβγ) (Saccharolobus solfataricus, UniProt Q980A5).
T1 construct: gene eif2g; full heterotrimer of α, β and γ subunits, purified; gamma from pET15b-Ss-aIF2γ; with Translation initiation factor 2 subunit alpha; Translation initiation factor 2 subunit beta

Experiment [2] deals with T2, Ss-aIF2 (aIF2 heterotrimer, αβγ) (Saccharolobus solfataricus, UniProt Q980A5, H97A).
T2 construct: gene eif2g; full heterotrimer of α, β and γ subunits, purified; gamma from pET15b-Ss-aIF2γ; with Translation initiation factor 2 subunit alpha; Translation initiation factor 2 subunit beta

Experiment [3] has as its target T3, Ss-aIF2 (aIF2 heterotrimer, αβγ) (Saccharolobus solfataricus, UniProt Q980A5, D19A).
T3 construct: gene eif2g; full heterotrimer of α, β and γ subunits, purified; gamma from pET15b-Ss-aIF2γ; with Translation initiation factor 2 subunit alpha; Translation initiation factor 2 subunit beta

T1 sequence (Q97Z79 whole entry): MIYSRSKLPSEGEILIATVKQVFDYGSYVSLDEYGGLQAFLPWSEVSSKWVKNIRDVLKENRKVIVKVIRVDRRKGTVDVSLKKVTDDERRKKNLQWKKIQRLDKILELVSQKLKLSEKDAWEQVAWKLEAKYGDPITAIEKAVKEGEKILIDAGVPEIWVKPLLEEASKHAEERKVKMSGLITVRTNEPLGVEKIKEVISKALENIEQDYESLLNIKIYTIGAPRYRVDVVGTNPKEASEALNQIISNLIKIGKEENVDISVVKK
T1 sequence (Q97W59 whole entry, further chain): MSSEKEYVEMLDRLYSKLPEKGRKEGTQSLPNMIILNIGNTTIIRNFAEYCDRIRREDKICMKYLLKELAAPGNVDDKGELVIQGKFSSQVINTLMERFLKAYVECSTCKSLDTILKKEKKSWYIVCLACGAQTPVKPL
T1 sequence (Q980A5 whole entry): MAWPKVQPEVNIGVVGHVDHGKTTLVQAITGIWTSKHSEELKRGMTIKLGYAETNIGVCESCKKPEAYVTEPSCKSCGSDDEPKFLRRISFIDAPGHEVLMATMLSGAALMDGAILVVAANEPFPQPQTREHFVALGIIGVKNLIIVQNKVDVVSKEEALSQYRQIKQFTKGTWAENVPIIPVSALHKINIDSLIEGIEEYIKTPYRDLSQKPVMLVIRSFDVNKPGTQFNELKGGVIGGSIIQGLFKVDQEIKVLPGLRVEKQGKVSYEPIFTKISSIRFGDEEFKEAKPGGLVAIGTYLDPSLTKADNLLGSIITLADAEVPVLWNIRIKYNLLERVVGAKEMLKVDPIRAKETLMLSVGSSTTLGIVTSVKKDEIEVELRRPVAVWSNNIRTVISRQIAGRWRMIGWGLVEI
T3 sequence (Q97W59 whole entry): as the sequence (Q97W59 whole entry, further chain) above
T3 sequence (Q97Z79 whole entry, further chain): as the sequence (Q97Z79 whole entry) above
T3 sequence (Q980A5 whole entry D19A): as the sequence (Q980A5 whole entry) above, with D19A counted along it
T2 sequence (Q980A5 whole entry H97A): as the sequence (Q980A5 whole entry) above, with H97A counted along it
T2 sequence (Q97W59 whole entry, further chain): as the sequence (Q97W59 whole entry, further chain) above
T2 sequence (Q97Z79 whole entry, further chain): as the sequence (Q97Z79 whole entry) above

For `Nc1nc2c(ncn2[C@@H]2O[C@H](COP(=O)(O)OP(=O)(O)O)[C@@H](O)[C@H]2O)c(=O)[nH]1` [GDP], the Kd was determined as 520 ± 120 nM in experiment [1], 340 ± 100 nM in experiment [2] and 240 ± 100 nM in experiment [3].
